Each block holds one molecule with its values, some of them ahead of it.
Experiments:
[1] = test system: tamoxifen-resistant MCF7 breast cancer cells; assay: Proliferation of tamoxifen-resistant MCF7 cells; format: cell-based, human; conditions: 6 days, cell numbers
Procedure: resistant MCF7 cells. Cells were treated with NB-73 or trans-hydroxytamoxifen (OH-
Tam) for 6 days and cell numbers were monitored. Values are mean ± SD of three
(1 picture or pasted object on this page, not shown here)

[2] = test system: FOXM1 target gene expression in MCF7 cells; assay: FOXM1 target gene expression by qRT-PCR; format: cell-based, human; conditions: MCF7, 24 h, compound at its IC50 for proliferation
Procedure: Total RNA was isolated using TRIzol (Invitrogen) and reverse transcribed using […] reverse transcriptase (New England BioLabs). Real-time PCR was performed using SYBRgreen PCR Master Mix (Quantabio) as described.[15] Relative mRNA levels of genes were normalized to the housekeeping gene 36B4, and fold-change calculated relative to the vehicle treated samples. Results are the average ± SD from at least two independent experiments carried out in triplicate. Primer sequences for the genes studied were obtained from the Harvard Primer Bank. Sequences are available on their website.

[3] = test system: MCF7 cells; assay: RNA-Seq gene regulation in MCF7 cells; format: cell-based, human; conditions: for genes regulated more than 2-fold (Venn diagram): MCF7, 9 h treatment, p < 0.05, FDI-6 20 µM
Procedure: (§1) For gene expression analysis, total RNA was extracted from cells using Trizol reagent and further cleaned using the Turbo DNase and RNAqueous kits (ThermoFisher). Cells were treated with Veh (0.1% EtOH), or with the compounds indicated for 9 h or 24 h. Once the sample quality and replicate reproducibility were verified, samples from each group were subjected to sequencing. RNA at a concentration of 100 ng/µl in nuclease-free water was used for library construction. cDNA libraries were prepared with the mRNA-TruSeq Kit (Illumina, Inc.). In brief, the poly-A containing mRNA was purified from total RNA, the RNA was fragmented, double-stranded cDNA was generated from fragmented RNA, and adapters were ligated to the ends.
The paired-end read data from the HiSeq 4000 were processed and analyzed through a series of steps. Base calling and de-multiplexing of samples within each lane were done with Casava 1.8.2. The RNA sequences were prepared with Illumina’s TruSeq Stranded mRNAseq Sample Prep kit. Reads were trimmed of adapters and low expression data using Trimmomatic version 0.38.[42] The STAR alignment tool version 2.5.3a was used to align the sequenced reads to the GRCh37 human genome from Ensembl.[43] Gene counts were calculated using subread version 1.5.2.[44],[45] The edgeR Bioconductor package in R was used for normalization and differential expression analysis. Default normalization methods were used, specifically trimmed mean of M values or TMM was used to calculate the normalized expression values. This method calculates the weighted trimmed mean of the log expression ratios in a gene-wise fashion.[46],[47] We considered genes with fold-change > 2 and p-value < 0.05 as statistically significant, differentially expressed.

[4] = test system: FOXM1 target genes in MDA-MB-231 cells; assay: RNA-Seq Gene Set Enrichment Analysis against FOXM1 target gene sets; format: cell-based, human; conditions: NB-73 […] 24 h, siFOXM1 25 nM 72 h
Procedure: as §1
The paired-end read data from the HiSeq 4000 were processed and analyzed through a series of steps. […] Reads were trimmed of adapters and low expression data using Trimmomatic version 0.38.[42] The STAR alignment tool version 2.5.3a was used to align the sequenced reads to the GRCh37 human genome from Ensembl.[43] Gene counts were calculated using subread version 1.5.2.[44],[45] […]
Gene Set Enrichment Analysis (GSEA)[48] was used for examination of our genome-wide expression profiles. Overrepresented gene ontology (GO) biological processes were determined by the web-based DAVID Bioinformatics Resources database.[49],[50] […]

[5] = test system: MDA-MB-231 cells; assay: Cell cycle analysis by flow cytometry; format: cell-based, human; conditions: synchronized, released 24 h, 1.5, 3.0, 4.5 µM
Procedure: Cells were synchronized by double thymidine block prior to cell cycle analysis by Propidium Iodide (PI) staining. Briefly, the cells were blocked with 2 mM thymidine for 18 h, then released with fresh media for 8 h followed by re-blocking with thymidine for another 16 h. Following the second block, the cells were released with or without treatments with the NB compounds and cells were collected and fixed in 70% ethanol at the time points indicated. After alcohol fixation for 2 h, the cells were washed with cold 1XPBS followed by staining with 50 µg/ml PI solution in PBS with addition of 5 µg/ml RNAse A for at least 4 h. The cells were then analyzed by the Flow Cytometry analyzer BD LSR II for percentage of cells in G1/G0, S, and G2/M phases of the cell cycle.

[6] = test system: MDA-MB-231 cells; assay: Apoptosis by AnnexinV/propidium iodide flow cytometry; format: cell-based, human; conditions: 1.5 or 3 µM, 24 h or 72 h
Procedure: (§2) The cells were analyzed for percentage of apoptotic cells following 24 h or 72 h of vehicle or compound treatment by staining with the Alexa Fluor® 488 Annexin V/Dead Cell Apoptosis Kit (Thermo Fisher) and flow cytometry according to the manufacturer’s protocol. Caspase activity in the cells after treatment with control vehicle or compounds was determined using the Caspase-Glo 3/7 Assay system (Promega) in a 96-well format following the manufacturer’s instructions. Supplementary Figs 6 and 7 exemplify the gating strategy used for the cell cycle and apoptosis flow cytometry analyses.

[7] = test system: Caspase 3/7 activity; assay: Caspase Glo 3/7 assay; format: cell-based, human; conditions: 1.5 or 3 µM, 24 h
Procedure: as §2

[8] = Pharmacokinetics in mice after single s.c. or oral dose; format: in vivo, female CD1 mice; conditions: for AUC / Cmax / half-life: female, CD1, mouse, 60 mg/kg, single dose, plasma
Procedure: The pharmacokinetics of compounds were monitored after single dose administration into female CD1 mice (7–9 weeks of age) via s.c. injection or oral gavage, as described.[39] For s.c. injection, each compound was dissolved in DMSO and then mixed with corn oil for a total injection volume of 100 μL (10% DSMO + 90% corn oil) per mouse. For oral gavage, compounds were administered in a 200 µL formulation of 9/0.5/0.5/90 parts of PEG400/Tween80/Povidone/0.5% Carboxymethylcellulose in DI water. […] Compounds were quantified by LC-MS/MS at the University of Illinois Metabolomics Core Facility. The data were fitted to a non-compartment model.

[9] = test system: DT22 breast tumor xenografts; assay: DT22 human breast tumor xenograft growth in NSG mice; format: in vivo; conditions: for tumor growth: DT22 tumors, NSG mice
Procedure: For examination of the effects of compounds on breast tumor growth suppression, intact female NOD/SCID-gamma (NSG) mice were used as detailed previously.[39] DT-22 breast cancer cells (1 × 10^6 cells/mouse) were injected s.c. into the right axial mammary gland. Mice received s.c. injection or oral gavage daily or every second or third day as indicated, with vehicle or treatment compound, and tumor volume (length × width^2/2) was monitored over time.

[10] = test system: FOXM1-regulated genes in DT22 tumors; assay: FOXM1-regulated gene expression in xenograft tumors by q-PCR; format: in vivo, NSG mice; conditions: 10 mg/kg NB-73 s.c., end of treatment
Excerpt: Primer sequences for the genes studied were obtained from the Harvard Primer Bank. Sequences are available on their website.

[11] = test system: human breast cancer cell lines (DT22, MCF7, T47D, BT474, MDA-MB-453, MDA-MB-468, MDA-MB-231); assay: Cell proliferation (WST-1) in panel of breast cancer cell lines; format: cell-based; conditions: cells in culture
Procedure: WST-1 assay (Roche, Basel, Switzerland) was used to quantify cell viability as described.[38] Absorbance was measured at 450 nm using a VICTOR X5 PerkinElmer 2030 Multilabel Plate Reader. All assays were performed in triplicate and analyzed using Graph Pad Prism 8.0.

[12] = biological target: T1, FOXM1 (Homo sapiens, UniProt Q08050); assay: Cellular FOXM1 protein level by Western blot; format: cell-based; set-up: endogenous in cells; host or cells: MDA-MB-231, MCF7; conditions: MDA-MB-231 or MCF7 cells over time; NB-55 5/8 µM, NB-73 1.5/4 µM, NB-115 4 µM, FDI-6 8 µM
T1 sequence (Q08050 1-763): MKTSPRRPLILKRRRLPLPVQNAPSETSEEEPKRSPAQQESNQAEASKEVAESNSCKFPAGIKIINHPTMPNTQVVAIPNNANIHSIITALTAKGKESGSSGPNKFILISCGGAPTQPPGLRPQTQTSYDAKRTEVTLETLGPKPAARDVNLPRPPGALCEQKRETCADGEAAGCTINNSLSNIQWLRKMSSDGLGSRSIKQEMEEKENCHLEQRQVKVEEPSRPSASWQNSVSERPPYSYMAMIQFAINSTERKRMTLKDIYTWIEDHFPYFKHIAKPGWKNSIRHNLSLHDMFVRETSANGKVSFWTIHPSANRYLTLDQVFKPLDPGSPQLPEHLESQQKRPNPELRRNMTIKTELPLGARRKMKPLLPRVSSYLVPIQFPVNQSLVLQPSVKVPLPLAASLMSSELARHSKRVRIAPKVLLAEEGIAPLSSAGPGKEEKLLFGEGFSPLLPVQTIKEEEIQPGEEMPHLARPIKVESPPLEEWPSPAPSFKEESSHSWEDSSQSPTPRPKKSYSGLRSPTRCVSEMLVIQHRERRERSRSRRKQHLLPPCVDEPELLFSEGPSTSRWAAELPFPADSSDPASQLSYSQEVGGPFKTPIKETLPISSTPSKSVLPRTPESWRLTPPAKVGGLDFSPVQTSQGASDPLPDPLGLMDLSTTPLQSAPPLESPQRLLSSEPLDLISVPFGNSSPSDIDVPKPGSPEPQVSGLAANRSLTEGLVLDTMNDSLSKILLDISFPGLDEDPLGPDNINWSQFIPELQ
Procedure: For Western blot analysis, whole-cell extracts were prepared using 1X RIPA lysis buffer (Thermo Fisher) supplemented with 1X protease inhibitor cocktail (Millipore Sigma). […] In some cases, treatments with compound were done in the presence of the proteasome inhibitor MG132 (Calbiochem) as described in the figure legend. […] Band intensities were analyzed with Licor Odyssey 2.1 software. All blots shown together derive from the same experiment and were processed in parallel. Full uncropped images of blots are shown as supplementary figures in the Supplementary Information file. Molecular weight markers were Rainbow markers from GE Healthcare (38–225 kDa) or Precision Plus Dual Color Markers from Biorad (37–250 kDa).

[13] = biological target: T1, FOXM1; assay: Intracellular localization of FOXM1 (immunofluorescence, nuclear/cytoplasmic fractionation); format: cell-based; set-up: endogenous in cells; host or cells: MDA-MB-231, MCF7; conditions: 24 h, Western blot of nuclear and cytoplasmic extracts
Procedure: In some cases, treatments with compound were done in the presence of the proteasome inhibitor MG132 (Calbiochem) as described in the figure legend. […] Band intensities were analyzed with Licor Odyssey 2.1 software. All blots shown together derive from the same experiment and were processed in parallel. Full uncropped images of blots are shown as supplementary figures in the Supplementary Information file. Molecular weight markers were Rainbow markers from GE Healthcare (38–225 kDa) or Precision Plus Dual Color Markers from Biorad (37–250 kDa).

[14] = biological target: T1, FOXM1; assay: tr-FRET competitive binding assay with Fl-NB-72 probe; set-up: we attached a terbium donor to purified, full length FOXM1 through a streptavidin-biotin linker; conditions: calculated from IC50 values; Supplementary Table 1; read-out: Ki, affinity for binding to FOXM1 protein
Procedure: Competitive binding assays of compound binding to FOXM1 by tr-FRET were done in FRET buffer (20 mM Tris, pH 7.5, 50 mM NaCl, 0.01% NP-40 detergent, 10% glycerol) with 0.3 mg/ml ovalbumin and 0.1 mM butylated hydroxy-anisole added fresh daily. Solutions of the protein, fluorescent probe and compound dilutions were prepared at 3× concentrations, the final dilution taking place as they were mixed together in equal portions on the microtiter plate.
Final concentrations were 10^−5 M to 10^−9 M, with the last point being buffer only, no compound. Fluorescein-NB-72 (Fl-NB- 72) was prepared at 1 mM in DMF and stored at −20 °C. It was diluted into FRET buffer to give 100 nM in the assay. Incubations were done in duplicate on black Molecular Devices 96-well microtiter plates. 5 μl of Fl-NB-72 and 5 μl of the compound dilutions, were mixed together on the plate. To this was added 5 µl biotin-FoxM1 and incubated in the dark at room temperature, for 1 h. […] To correct for background signals, biotin-FOXM1 was omitted, and diffusion-enhanced FRET incubations were done in duplicate on black Molecular Devices 96-well microtiter plates. Five microliter of Fl-NB-72 and 5 μl of the compound solutions were mixed together and then 5 µl of FRET buffer plus SaTb was added, mixed and incubated in the dark at room temperature, for 1 h. The tr-FRET signals measured as above were subtracted as a background from the first incubations that contained biotin-FOXM1. Graphs were prepared using Graph Pad/Prism 4.

Structure (SMILES): C[N+]1(CCCCCCOc2ccc(C(=C3C4CC5CC(C4)CC3C5)c3ccc(OCCCCCC[N+]4(C)CCCCCC4)cc3)cc2)CCCCCC1 [NB-73]
- proliferation of tamoxifen-resistant MCF7 cells [1]: effectively suppressed the proliferation
- expression of ATF3, a gene suppressed by FOXM1 [2]: increased expression of ATF3
- expression of FOXM1 stimulated target genes (FOXM1C, AURKB, CCNB1, PLK1) [2]: significantly reduced the expression
- genes regulated more than 2-fold (Venn diagram) [3]: 870 genes
- normalized enrichment score (NES), FOXM1 target gene set [4]: -1.32
- percent of cells in G2/M [5]: large increase in the percent of cells in G2/M
- percent of cells in S phase [5]: decrease in the percent of cells in S phase
- percent of apoptotic cells [6]: increased the percent of apoptotic cells
- caspase 3/7 activity [7]: increased
- blood levels of compound ([8]; after oral administration): only very low levels
- blood levels of compound ([8]; after s.c. injection): very high blood levels
- AUC ([8]; oral): 0.015 µM·h
- Cmax ([8]; oral): 5.5 nM
- half-life ([8]; oral): 40.3 h
- AUC ([8]; sc): 158 µM·h
- Cmax ([8]; sc): 5300 nM
- half-life ([8]; sc): 31.4 h
- tumor growth ([9]; 5 mg/kg s.c. daily then every other day from day 21): reduced tumor growth
- tumor growth ([9]; 10 mg/kg s.c. daily then every other day from day 21): more markedly suppressed growth
- tumor growth ([9]; s.c., 20 mg/kg every other day for 10 days then 10 mg/kg every other day): greatly suppress tumor growth
- tumor growth in vivo ([9]; low doses (2–20 mg/kg) s.c. daily or every other day): greatly suppress tumor growth
- expression of FOXM1-regulated genes in tumors [10]: greatly reduced

- blood levels ([8]; oral, 40 mg/kg): undetectable
- blood levels ([8]; s.c., 20 mg/kg): only very low blood levels
- intracellular level of FOXM1 [12]: minimally affected
- Ki [14]: 143 nM
Structure (SMILES): Nc1c(C(=O)Nc2ccc(F)cc2)sc2nc(-c3cccs3)cc(C(F)(F)F)c12 [FDI-6, reference compound]
- potency in cells in culture [11]: potency similar to NB-55
- expression of ATF3, a gene suppressed by FOXM1 [2]: increased expression of ATF3
- expression of FOXM1 stimulated target genes (FOXM1C, AURKB, CCNB1, PLK1) [2]: significantly reduced the expression
- genes regulated that overlapped with NB-73 regulated genes ([3]; MCF7, 9 h, more than 2-fold, FDR < 0.05): 48%
- genes regulated more than 2-fold (Venn diagram) [3]: 664 genes
- intracellular localization of FOXM1 [13]: does not change the intracellular localization of FOXM1

— paper PMC6884575, “Suppression of FOXM1 activities and breast cancer growth in vitro and in vivo by a new class of compounds” (NPJ Breast Cancer, 2019)
